From patent US20150352142A1, “STABILIZED COMPOSITIONS COMPRISING HYALURONIC ACID” (Carbylan Therapeutics, Inc., priority 2013, published 2015) come the findings set out here.

Common to all, as to type: physicochemical
Series [1] is described as follows: Specific viscosity retention of crosslinked HA hydrogel/HA solution formulation with and without TA, stored at 25° C. (Example 1A).
Series [2] in a line: Effect of sucrose on HA viscosity at 80° C. (Example 1B). The conditions noted are these: HA solution. How it is done:
6.9 g of hyaluronic acid, HA (Lifecore, 888 KDa) was dissolved in 881 mL of 0.9% NaCl overnight. The dissolved HA was sterile filtered with 0.2 μm filter (Millipore, Opticap 4″). 3.97 mL of 1 M sodium phosphate, pH 6.71 was added to the HA solution. Then 372 mg of USP grade triamcinolone acetonide (TA) was mixed with 223.2 mL of dissolved HA in a sterile 250 mL Nalgene bottle. […] Each mixture was mixed for 1 hour. No additives were added to the control sample. For each large sample, 2±0.2 mL aliquots were placed in a sterile 4 mL glass vial which was then sealed with septum and aluminum cap. All these aliquoted samples, except the 0 hour samples, were placed in an oven set at 80° C. With the exception of the 0 hour samples, at each time point, 3 of the samples were removed from the oven and allowed to cool to room temperature. The viscosity of each sample was measured using AR550 Rheometer (TA Instrument) with 40 mm 2° steel cone at 22° C. with a 3 min time sweep. The percent retention of the HA viscosity was determined by the ratio of the viscosity (average of the 3 samples) on the specified day to that on 0 hour. The stabilization ratio at 30 hours is the ratio of the percent retention of HA viscosity with the specific additive to the percent retention of HA viscosity of the sample with no additive.

Series [3] in a line: Effect of sucrose on HA viscosity at 60° C. (Example 2). The conditions noted are these: HA solution.
Procedure: 6.9 g of HA (Lifecore, 888 KDa) was dissolved in 881 mL of 0.9% NaCl overnight. The dissolved HA was sterile filtered with 0.2 μm filter (Millipore, Opticap 4″). 3.97 mL of 1 M Sodium Phosphate, pH 6.71 was added to the HA solution. Then 372 mg of USP grade triamcinolone acetonide (TA) was mixed with 223.2 mL of dissolved HA in a sterile 250 mL Nalgene bottle. […] Each mixture was mixed for 1 hour. No additives were added to the control sample. For each large sample, 2±0.2 mL aliquots were placed in a sterile 4 mL glass vial which was then sealed with septum and aluminum cap. All these aliquoted samples, except the 0 hour samples, were placed in an oven set at 60° C. With the exception of the Day 0 samples, at each time point, 3 of the samples were removed from the oven and allowed to cool to room temperature. The viscosity of each sample was measured using AR550 Rheometer (TA Instrument) with 40 mm 2° steel cone at 22° C. with a 3 min time sweep. The percent retention of the HA viscosity was determined by the ratio of the viscosity (average of the 3 samples) on the specified day to that on Day 0. The stabilization ratio at Day 6 is the ratio of the percent retention of HA viscosity with the specific additive to the percent retention of HA viscosity of the sample with no additive.
Series [4] in a line: Effect of sucrose on HA viscosity at 55° C. (Example 3). The following applies: HA solution. The protocol:
6.9 g of HA (Lifecore, 888 KDa) was dissolved in 881 mL of 0.9% NaCl overnight. The dissolved HA was sterile filtered with 0.2 um filter (Millipore, Opticap 4″). 3.97 mL of 1 M Sodium Phosphate, pH 6.71 was added to the HA solution. Then 135.3 mg of USP grade Triamcinolone acetonide (TA) was mixed with 81.2 mL of dissolved HA in a sterile 250 mL Nalgene bottle. […] Each mixture was mixed for 1 hour. No additives were added to the control sample. For each large sample, 2±0.2 mL aliquots were placed in a sterile 4 mL glass vial which was then sealed with septum and aluminum cap. All these aliquoted samples, except the 0 hour samples, were placed in an oven set at 55° C. With the exception of the Day 0 samples, at each time point, 3 of the samples were removed from the oven and allowed to cool to room temperature. The viscosity of each sample was measured using AR550 Rheometer (TA Instrument) with 40 mm 2° steel cone at 22° C. with a 3 min time sweep. The percent retention of the HA viscosity was determined by the ratio of the viscosity (average of the 3 samples) on the specified day to that on Day 0. The stabilization ratio at Day 6 is the ratio of the percent retention of HA viscosity with the specific additive to the percent retention of HA viscosity of the sample with no additive.

Series [5] can be described thus: Effect of sucrose on HA viscosity at 40° C. (Example 4). The conditions noted are these: HA solution. How it is done: 6.9 g of HA (Lifecore, 888 KDa) was dissolved in 881 mL of 0.9% NaCl overnight. The dissolved HA was sterile filtered with 0.2 μm filter (Millipore, Opticap 4″). 3.97 mL of 1 M sodium phosphate, pH 6.71 was added to the HA solution. Then 372 mg of USP grade triamcinolone acetonide (TA) was mixed with 223.2 mL of dissolved HA in a sterile 250 mL Nalgene bottle. […] Each mixture was mixed for 1 hour. No additives were added to the control sample. For each large sample, 2±0.2 mL aliquots were placed in a sterile 4 mL glass vial which was then sealed with septum and aluminum cap. All these aliquoted samples, except the Week 0 samples, were placed in an oven set at 40° C. With the exception of the Day 0 samples, at each time point, 3 of the samples were removed from the oven and allowed to cool to room temperature. The viscosity of each sample was measured using AR550 Rheometer (TA Instrument) with 40 mm 2° steel cone at 22° C. with a 3 min time sweep. The percent retention of the HA viscosity was determined by the ratio of the viscosity (average of the 3 samples) on the specified day to that on Week 0. The stabilization ratio at Week 6 is the ratio of the percent retention of HA viscosity with the specific additive to the percent retention of HA viscosity of the sample with no additive.

Series [6] is described as follows: Effect of sucrose on HA (880) viscosity at 55° C. (Example 10). The following applies: HA (880 KDa) solution. How it is done:
4.7 g of HA (Lifecore, 880 KDa) was dissolved in 600 mL of 0.9% NaCl overnight. The dissolved HA was sterile filtered with 0.2 um filter (Millipore, Opticap 4″). 0.84 mL of 1 M Sodium Phosphate, pH 6.71 was added to 167.51 mL of the filtered HA solution. Then 248.4 mg of USP grade Triamcinolone acetonide (TA) was mixed with 144.2 mL of dissolved HA in a sterile 250 mL Nalgene bottle. […] Each mixture was mixed for 1 hour. No additives were added to the control sample. For each large sample, 2±0.2 mL aliquots were placed in a sterile 4 mL glass vial which was then sealed with septum and aluminum cap. All these aliquoted samples, except the 0 hour samples, were placed in an oven set at 55° C. With the exception of the 0 hour samples, at each time point (Day 1, Day 3 and Day 7), 3 of the samples were removed from the oven and allowed to cool to room temperature. The viscosity of each sample was measured using AR550 Rheometer (TA Instrument) with 40 mm 2° steel cone at 22° C. with a 3 min time sweep. The percent retention of the HA viscosity was determined by the ratio of the viscosity (average of the 3 samples) on the specified day to that on Day 0.

The nature of series [7]: Effect of sucrose on HA (730) viscosity at 55° C. (Example 11). The following applies: HA (730 KDa) solution.
Procedure: 4.7 g of HA (Lifecore, 730 KDa) was dissolved in 600 mL of 0.9% NaCl overnight. The dissolved HA was sterile filtered with 0.2 um filter (Millipore, Opticap 4″). 0.86 mL of 1 M Sodium Phosphate, pH 6.71 was added to 171.8 mL of the HA solution. Then 248.2 mg of USP grade Triamcinolone acetonide (TA) was mixed with 148.9 mL of dissolved HA in a sterile 250 mL Nalgene bottle. […] Each mixture was mixed for 1 hour. No additives were added to the control sample. For each large sample, 2±0.2 mL aliquots were placed in a sterile 4 mL glass vial which was then sealed with septum and aluminum cap. All these aliquoted samples, except the 0 hour samples, were placed in an oven set at 55° C. With the exception of the 0 hour samples, at each time point (Day 1, Day 3 and Day 7), 3 of the samples were removed from the oven and allowed to cool to room temperature. The viscosity of each sample was measured using AR550 Rheometer (TA Instrument) with 40 mm 2° steel cone at 22° C. with a 3 min time sweep. The percent retention of the HA viscosity was determined by the ratio of the viscosity (average of the 3 samples) on the specified day to that on Day 0.
Series [8] is described as follows: Effect of additives on HA viscosity at 60° C., HA/TA (Example 16). The conditions noted are these: HA solution. The protocol:
Then 344.3 mg of USP grade Triamcinolone Acetonide (TA) was mixed with 206.6 mL of dissolved HA in a sterile 250 mL Nalgene bottle. […] No additives were added to the control sample. For each large sample, 2±0.2 mL aliquots were placed in a sterile 4 mL glass vial which was then sealed with septum and aluminum cap. All these aliquoted samples, except the 0 hour samples, were placed in an oven set at 60° C. With the exception of the Day 0 samples, at each time point (Day 1, Day 3 and Day 7), 3 of the samples were removed from the oven and allowed to cool to room temperature. […] The percent retention of the HA viscosity was determined by the ratio of the viscosity (average of the 3 samples) on the specified day to that on Day 0.

The nature of series [9]: Effect of additives on HA viscosity at 60° C., HA/TA (Example 17). The following applies: HA solution.
Procedure: 3.92 g of HA (Shiseido, IV=2 m^3/kg) was dissolved in 500 mL of 0.9% NaCl overnight. The dissolved HA was sterile filtered with 0.2 um filter (Millipore, Opticap 4″). 2.16 mL of 1 M Sodium Phosphate, pH 6.71 was added to the HA solution. Then 344.3 mg of USP grade Triamcinolone Acetonide (TA) was mixed with 206.6 mL of dissolved HA in a sterile 250 mL Nalgene bottle. […] No additives were added to the control sample. For each large sample, 2±0.2 mL aliquots were placed in a sterile 4 mL glass vial which was then sealed with septum and aluminum cap. All these aliquoted samples, except the 0 hour samples, were placed in an oven set at 60° C. With the exception of the Day 0 samples, at each time point (Day 1, Day 3 and Day 6), 3 of the samples were removed from the oven and allowed to cool to room temperature. The viscosity of each sample was measured using AR550 Rheometer (TA Instrument) with 40 mm 2° steel cone at 22° C. with a 3 min time sweep. The percent retention of the HA viscosity was determined by the ratio of the viscosity (average of the 3 samples) on the specified day to that on Day 0. The stabilization ratio at Day 6 is the ratio of the percent retention of HA viscosity with the specific additive to the percent retention of HA viscosity of the sample with no additive.
Series [10] can be described thus: Effect of additives on HA viscosity at 60° C., HA/triamcinolone hexacetonide (Example 18). The conditions noted are these: HA solution. How it is done: 19.6 g of HA (Shiseido, IV=2 m^3/kg) was dissolved in 2.5 L of 0.9% NaCl overnight. The dissolved HA was sterile filtered with 0.2 um filter (Millipore, Opticap 4″). 1.15 mL of 1 M Sodium Phosphate, pH 6.71 was added to 228.9 mL of the HA solution. Then 334.9 mg of USP grade Triamcinolone hexacetonide(TH) was mixed with 200.95 mL of dissolved HA in a sterile 250 mL Nalgene bottle. […] Each mixture was mixed for 1 hour. No additives were added to the control sample. For each large sample, 2±0.2 mL aliquots were placed in a sterile 4 mL glass vial which was then sealed with septum and aluminum cap. All these aliquoted samples, except the Day 0 samples, were placed in an oven set at 60° C. With the exception of the Day 0 samples, at each time point, 3 of the samples were removed from the oven and allowed to cool to room temperature. The viscosity of each sample was measured using AR550 Rheometer (TA Instrument) with 40 mm 2° steel cone at 22° C. with a 3 min time sweep. The percent retention of the HA viscosity was determined by the ratio of the viscosity (average of the 3 samples) on the specified day to that on Day 0. The stabilization ratio at Day 6 is the ratio of the percent retention of HA viscosity with the specific additive to the percent retention of HA viscosity of the sample with no additive.

For `CC1(C)O[C@@H]2C[C@H]3[C@@H]4CCC5=CC(=O)C=C[C@]5(C)[C@@]4(F)[C@@H](O)C[C@]3(C)[C@]2(C(=O)CO)O1` [TA, triamcinolone acetonide], the “effect of presence of corticosteroid on HA viscosity vs same formulation without it (in words)” value in series [1] is given as “decreased more rapidly over time”. The “effect of presence of corticosteroid on HA viscosity vs HA without it (in words)” value (“effect of presence … vs HA without it (in words)” below) in series [2] is given as “increased degradation of the HA”; in series [3], “increased degradation of the HA”; in series [4], “increased degradation of the HA”; in series [5] it was “increased degradation of the HA”; in series [6] it was “increased decrease in the viscosity of the HA”; in series [7], “increased decrease in the viscosity of the HA”. Further, the “effect of presence … vs HA without it (in words)” value in series [8] and in series [9] was “increased degradation of the HA” in each case.

For `CC(C)(C)CC(=O)OCC(=O)[C@@]12OC(C)(C)O[C@@H]1C[C@H]1[C@@H]3CCC4=CC(=O)C=C[C@]4(C)[C@@]3(F)[C@@H](O)C[C@@]12C` [triamcinolone hexacetonide, Triamcinolone hexacetonide], the “effect of presence … vs HA without it (in words)” value in [10] is given as “decrease in the viscosity of the HA”.
